Laboratory results taken from publication PMC6372667 (Experimental & Molecular Medicine, 2019).

Experiments:
dementia animal models = details: 5 mg/kg i.p. ref 53; cited from earlier work
BACE1 = details: cited from earlier work
PAMPA-BBB, literature = assay type: in vitro ADME; details: from log BB = 0.612 × log Pe + 3.206 (ref 49)
[1] = pharmacokinetic descriptor of the brain ref 53; cited from earlier work
Electric eel AChE = target: T1, Electric eel AChE (Electrophorus electricus, UniProt O42275); assay: In vitro cholinesterase enzyme assay (Ellman), AChE; assay type: biochemical
T1 construct: purchased Sigma-Aldrich Co
T1 sequence (O42275 24-633): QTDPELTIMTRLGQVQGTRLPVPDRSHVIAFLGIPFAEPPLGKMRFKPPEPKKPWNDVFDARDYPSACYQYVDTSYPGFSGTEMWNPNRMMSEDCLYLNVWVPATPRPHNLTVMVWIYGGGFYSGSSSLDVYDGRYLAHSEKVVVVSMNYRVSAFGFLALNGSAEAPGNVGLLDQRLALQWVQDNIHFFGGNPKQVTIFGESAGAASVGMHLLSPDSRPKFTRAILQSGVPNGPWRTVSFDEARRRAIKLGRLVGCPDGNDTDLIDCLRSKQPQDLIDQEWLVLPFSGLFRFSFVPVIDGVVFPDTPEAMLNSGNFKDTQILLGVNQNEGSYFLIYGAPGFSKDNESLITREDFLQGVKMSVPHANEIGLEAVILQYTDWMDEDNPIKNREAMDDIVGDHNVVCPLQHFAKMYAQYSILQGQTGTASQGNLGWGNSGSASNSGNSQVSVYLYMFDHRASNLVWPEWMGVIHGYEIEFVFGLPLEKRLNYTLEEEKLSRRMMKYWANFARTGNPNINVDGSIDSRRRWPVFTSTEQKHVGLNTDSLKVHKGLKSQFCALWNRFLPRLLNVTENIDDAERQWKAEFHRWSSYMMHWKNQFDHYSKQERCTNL
Source text: BACE1 (human recombinant β-secretase) ([…]) and the BACE1 FRET (fluorescence resonance energy transfer) assay kit Red were purchased from ThermoFisher Scientific (P2985; Waltham, MA, USA). […] For the cell culture experiment, Dulbecco’s modified Eagle’s medium (DMEM), Opti-MEM, fetal bovine serum (FBS), and penicillin/streptomycin were obtained from Capricorn Scientific (Ebsdorfergrund, Germany). β-secretase inhibitor III (β-SI) was purchased from Calbiochem (Darmstadt, Germany). The protease inhibitor mixture (a mixture of AEBSF, pepstatin A, E-64, bestain, leupeptin, and aprotinin) was purchased from Sigma-Aldrich (St. Louis, MO, USA). Enzyme-linked immunosorbent assay (ELISA) kits for Aβ40 and Aβ42 were obtained from IBL (Kunma, Japan). All chemicals and solvents used were reagent grade, purchased from commercial sources, and used as received.
The inhibitory activities of pterosin derivatives against cholinesterases were measured using the method developed by Ellman et al.[32]. The reaction mixture contained 140 μL of sodium phosphate buffer (pH 8.0), 20 μL of test sample solution (final concentration of the compound 100 μM), and 20 μL of AChE or BChE solution, mixed and incubated for 15 min at room temperature. […] The reactions were initiated following the addition of 10 μL of DTNB and 10 μL of acetyl thiocholine iodide for the AChE assay or butyryl thiocholine chloride for the BChE assay in 96-well microplates, which were incubated for 15 min.

COc1ccc2cc3[n+](cc2c1OC)CCc1cc2c(cc1-3)OCO2 [Berberine, berberine]
Cognitive effect (dementia animal models): procognitive and antiamnestic properties
BACE1-inhibitory activity (BACE1): lacks
log Pe corresponding to log BB (PAMPA-BBB, literature): −5.8
log BB [1]: −0.35
IC50 (Electric eel AChE): 390 ± 10 nM
